test system: OPM-2; assay: Cell Viability Assay (OPM-2 10 FBS); type: cell-based, human; conditions: OPM-2 cells, 16 h, CellTiter-Glo, read-out: OPM-2 10% FBS IC50 IP
Procedure: Cell Viability Assay (OPM-2 10 FBS)
The human multiple myeloma cell line, OPM-2, was cultured in complete growth medium containing RPMI 1640 and 10% fetal bovine serum (FBS). Cells were seeded into 384-well plates at 3000 cells/well density in complete growth medium containing 10% FBS, and incubated for 16 h with serially diluted test compounds in a 37° C. incubator with 5% CO2. Cell viability was tested using CellTiter-Glo® assay (Promega, Madison, Wis.) according to the manufacturer recommendations. Luminescence was determined using an EnVision® Multilabel plate reader 25 min after the addition of detection reagent. IC50 values were then calculated with Xlfit using a logistical 4-parameter fit model in GraphPad Prism (GraphPad Software, San Diego, Calif.) or in Genedata Screener® (Genedata, Basel, Switzerland).

Compound	IC50
COCC[C@@H]1[C@@H](C)CCC[C@H]([C@H]2OC[C@@H](N(C)C)CO2)[C@@H]2CC[C@H]2CN2C[C@@]3(CCCc4cc(Cl)ccc43)COc3ccc(cc32)C(=O)NS1(=O)=O (stereo in doubt) [Example 83]	540 nM
C[C@@H]1[C@@H](C)CCC[C@H]([C@H]2OC[C@@H](N(C)C)CO2)[C@@H]2CC[C@H]2CN2C[C@@]3(CCCc4cc(Cl)ccc43)COc3ccc(nc32)C(=O)NS1(=O)=O (stereo in doubt) [Example 93, (1S,3′R,6′R,7′S,11′S,12′R)-6-chloro-7′-(cis-5-(dimethylamino)-1,3-dioxan-2-yl)-11′,12′-dimethyl-3,4-dihydro-2H,15′H-spiro[naphthalene-1,22′-[20]oxo[13]thia[1,14,25]triazatetracyclo [14.7.2.0~3,6~.0~19,24~]pentacosa[16,18,24]trien]-15′-one 13′,13′-dioxide]	34 nM
C[C@@H]1[C@@H](C)CCC[C@H]([C@H]2OC[C@@H](N(C)C)CO2)[C@@H]2CC[C@H]2CN2C[C@@]3(CCCc4cc(Cl)ccc43)COc3ccc(nc32)C(=O)NS1(=O)=O (stereo in doubt) [Example 94]	257 nM
C[C@@H]1[C@@H](C)CCC[C@H]([C@H]2OC[C@@H](N(C)C)CO2)[C@@H]2CC[C@H]2CN2C[C@@]3(CCCc4cc(Cl)ccc43)COc3ccc(nc32)C(=O)NS1(=O)=O (stereo in doubt) [Example 95]	108 nM
C[C@@H]1[C@@H](C)CCC[C@H]([C@H]2OC[C@@H](N3CCC3)CO2)[C@@H]2CC[C@H]2CN2C[C@@]3(CCCc4cc(Cl)ccc43)COc3ccc(cc32)C(=O)NS1(=O)=O [Example 20, (1S,3′R,6′R,7′S,11′S,12′R)-7′-(cis-5-(1-azetidinyl)-1,3-dioxan-2-yl)-6-chloro-11′,12′-dimethyl-3,4-dihydro-2H,15′H-spiro[naphthalene-1,22′-[20]oxa[13]thia[1,14]diazatetracyclo [14.7.2.0~3,6~.0~19,24~]pentacosa[16,18,24]trien]-15′-one 13′,13′-dioxide]	41 nM
C[C@@H]1[C@@H](C)CCC[C@H]([C@H]2OC[C@@H](N3CCC3)CO2)[C@@H]2CC[C@H]2CN2C[C@@]3(CCCc4cc(Cl)ccc43)COc3ccc(cc32)C(=O)NS1(=O)=O [Example 21, (1S,3′R,6′R,7′S,11′S,12′R)-7′-(cis-5-(1-azetidinyl)-1,3-dioxan-2-yl)-6-chloro-11′,12′-dimethyl-3,4-dihydro-2H,15′H-spiro[naphthalene-1,22′-[20]oxa[13]thia[1,14]diazatetracyclo [14.7.2.0~3,6~.0~19,24~]pentacosa[16,18,24]trien]-15′-one 13′,13′-dioxide]	521 nM
C[C@@H]1[C@@H](C)CCC[C@H]([C@H]2OC[C@@H](N3CC(F)(F)C3)CO2)[C@@H]2CC[C@H]2CN2C[C@@]3(CCCc4cc(Cl)ccc43)COc3ccc(cc32)C(=O)NS1(=O)=O [Example 31, (1S,3′R,6′R,7′S,11′S,12′R)-6-chloro-7′-(cis-5-(3,3-difluoro-1-azetidinyl)-1,3-dioxan-2-yl)-11′,12′-dimethyl-3,4-dihydro-2H,15′H-spiro[naphthalene-1,22′-[20]oxa[13]thia[1,14]diazatetracyclo [14.7.2.0~3,6~.0~19,24~]pentacosa[16,18,24]trien]-15′-one 13′,13′-dioxide]	204 nM
C[C@@H]1[C@@H](C)CCC[C@H]([C@H]2OC[C@@H](N3CC(F)(F)C3)CO2)[C@@H]2CC[C@H]2CN2C[C@@]3(CCCc4cc(Cl)ccc43)COc3ccc(cc32)C(=O)NS1(=O)=O [Example 32, (1S,3′R,6′R,7′S,11′S,12′R)-6-chloro-7′-(cis-5-(3,3-difluoro-1-azetidinyl)-1,3-dioxan-2-yl)-11′,12′-dimethyl-3,4-dihydro-2H,15′H-spiro[naphthalene-1,22′-[20]oxa[13]thia[1,14]diazatetracyclo [14.7.2.0~3,6~.0~19,24~]pentacosa[16,18,24]trien]-15′-one 13′,13′-dioxide]	1940 nM
COC1CN([C@H]2CO[C@@H]([C@H]3CCC[C@H](C)[C@@H](C)S(=O)(=O)NC(=O)c4ccc5c(c4)N(C[C@@H]4CC[C@H]43)C[C@@]3(CCCc4cc(Cl)ccc43)CO5)OC2)C1 [Example 52, (1S,3′R,6′R,7′S,11′S,12′R)-6-chloro-7′-(cis-5-(3-methoxy-1-azetidinyl)-1,3-dioxan-2-yl)-11′,12′-dimethyl-3,4-dihydro-2H,15′H-spiro[naphthalene-1,22′-[20]oxa[13]thia[1,14]diazatetracyclo [14.7.2.0~3,6~.0~19,24~]pentacosa[16,18,24]trien]-15′-one 13′,13′-dioxide]	59 nM
COC1CN([C@H]2CO[C@@H]([C@H]3CCC[C@H](C)[C@@H](C)S(=O)(=O)NC(=O)c4ccc5c(c4)N(C[C@@H]4CC[C@H]43)C[C@@]3(CCCc4cc(Cl)ccc43)CO5)OC2)C1 [Example 53, (1S,3′R,6′R,7′S,11′S,12′R)-6-chloro-7′-(cis-5-(3-methoxy-1-azetidinyl)-1,3-dioxan-2-yl)-11′,12′-dimethyl-3,4-dihydro-2H,15′H-spiro[naphthalene-1,22′-[20]oxa[13]thia[1,14]diazatetracyclo [14.7.2.0~3,6~.0~19,24~]pentacosa[16,18,24]trien]-15′-one 13′,13′-dioxide]	184 nM
COC1CN([C@H]2CO[C@@H]([C@H]3CCC[C@H](C)[C@@H](C)S(=O)(=O)NC(=O)c4ccc5c(c4)N(C[C@@H]4CC[C@H]43)C[C@@]3(CCCc4cc(Cl)ccc43)CO5)OC2)C1 [Example 54, (1S,3′R,6′R,7′S,11′S,12′R)-6-chloro-7′-(cis-5-(3-methoxy-1-azetidinyl)-1,3-dioxan-2-yl)-11′,12′-dimethyl-3,4-dihydro-2H,15′H-spiro[naphthalene-1,22′-[20]oxa[13]thia[1,14]diazatetracyclo [14.7.2.0~3,6~.0~19,24~]pentacosa[16,18,24]trien]-15′-one 13′,13′-dioxide]	547 nM
CCN(CC)[C@H]1CO[C@@H]([C@H]2CCC[C@H](C)[C@@H](C)S(=O)(=O)NC(=O)c3ccc4c(c3)N(C[C@@H]3CC[C@H]32)C[C@@]2(CCCc3cc(Cl)ccc32)CO4)OC1 [Example 57, (1S,3′R,6′R,7′S,11′S,12′R)-6-chloro-7′-(cis-5-(diethylamino)-1,3-dioxan-2-yl)-11′,12′-dimethyl-3,4-dihydro-2H,15′H-spiro[naphthalene-1,22′-[20]oxa[13]thia[1,14]diazatetracyclo [14.7.2.0~3,6~.0~19,24~]pentacosa[16,18,24]trien]-15′-one 13′,13′-dioxide]	164 nM
CCN(CC)[C@H]1CO[C@@H]([C@H]2CCC[C@H](C)[C@@H](C)S(=O)(=O)NC(=O)c3ccc4c(c3)N(C[C@@H]3CC[C@H]32)C[C@@]2(CCCc3cc(Cl)ccc32)CO4)OC1 [Example 58, (1S,3′R,6′R,7′S,11′S,12′R)-6-chloro-7′-(cis-5-(diethylamino)-1,3-dioxan-2-yl)-11′,12′-dimethyl-3,4-dihydro-2H,15′H-spiro[naphthalene-1,22′-[20]oxa[13]thia[1,14]diazatetracyclo [14.7.2.0~3,6~.0~19,24~]pentacosa[16,18,24]trien]-15′-one 13′,13′-dioxide]	512 nM
C[C@@H]1[C@@H](C)CCC[C@H]([C@H]2OC[C@@H](N3CC(N(C)C)C3)CO2)[C@@H]2CC[C@H]2CN2C[C@@]3(CCCc4cc(Cl)ccc43)COc3ccc(cc32)C(=O)NS1(=O)=O [Example 67, (1S,3′R,6′R,7′S,11′S,12′R)-6-chloro-7′-(cis-5-(3-(dimethylamino)-1-azetidinyl)-1,3-dioxan-2-yl)-11′,12′-dimethyl-3,4-dihydro-2H,15′H-spiro[naphthalene-1,22′-[20]oxa[13]thia[1,14]diazatetracyclo [14.7.2.0~3,6~.0~19,24~]pentacosa[16,18,24]trien]-15′-one 13′,13′-dioxide]	220 nM
C[C@@H]1[C@@H](C)CCC[C@H]([C@H]2OC[C@@H](N3CC(N(C)C)C3)CO2)[C@@H]2CC[C@H]2CN2C[C@@]3(CCCc4cc(Cl)ccc43)COc3ccc(cc32)C(=O)NS1(=O)=O [Example 68, (1S,3′R,6′R,7′S,11′S,12′R)-6-chloro-7′-(cis-5-(3-(dimethylamino)-1-azetidinyl)-1,3-dioxan-2-yl)-11′,12′-dimethyl-3,4-dihydro-2H,15′H-spiro[naphthalene-1,22′-[20]oxa[13]thia[1,14]diazatetracyclo [14.7.2.0~3,6~.0~19,24~]pentacosa[16,18,24]trien]-15′-one 13′,13′-dioxide]	517 nM
COCC[C@@H]1[C@@H](C)CCC[C@H]([C@H]2OC[C@@H](N(C)C)CO2)[C@@H]2CC[C@H]2CN2C[C@@]3(CCCc4cc(Cl)ccc43)COc3ccc(cc32)C(=O)NS1(=O)=O [Example 82, (1S,3′R,6′R,7′S,11′S,12′R)-6-chloro-7′-(cis-5-(dimethylamino)-1,3-dioxan-2-yl)-12′-(2-methoxyethyl)-11′-methyl-3,4-dihydro-2H,15′H-spiro[naphthalene-1,22′-[20]oxa[13]thia[1,14]diazatetracyclo [14.7.2.0~3,6~.0~19,24~]pentacosa[16,18,24]trien]-15′-one 13′,13′-dioxide]	33 nM
C[C@@H]1CS(=O)(=O)NC(=O)c2ccc3c(c2)N(C[C@@H]2CC[C@H]2[C@@H]([C@H]2OC[C@@H](N(C)C)CO2)CC[C@@H]1C)C[C@@]1(CCCc2cc(Cl)ccc21)CO3 [Example 84, (1S,3′R,6′R,7′S,10′S,11′S)-6-chloro-7′-(cis-5-(dimethylamino)-1,3-dioxan-2-yl)-10′,11′-dimethyl-3,4-dihydro-2H,15′H-spiro[naphthalene-1,22′-[20]oxa[13]thia[1,14]diazatetracyclo [14.7.2.0~3,6~.0~19,24~]pentacosa[16,18,24]trien]-15′-one 13′,13′-dioxide]	145 nM
